Species: Rattus norvegicus
Assay: Open TG-GATES - Regimen: Daily Repeat
Format: toxicity, organism-based, Sprague-Dawley
Set-up: regimen Daily Repeat, gender Male, age 6 weeks
Conditions: in vivo, po, 150 mg/kg, route gavage, dose level High; for APTT / Bas / Eos / Fbg / Hb / Ht / Lym / MCH / MCHC / MCV / Mono / Neu / PT / Plat / RBC / Ret / WBC: tissue Blood; for KIDNEY_L / KIDNEY_R / KIDNEY_TOTAL: tissue Kidney; for LIVER: tissue Liver; for A/G / ALP / ALT / AST / BUN / CRE / Ca / Cl / DBIL / GLC / IP / K / LDH / Na / PL / RALB / TBIL / TC / TG / TP / gamma-GTP: tissue Plasma

CC(C)C(=O)Nc1ccc([N+](=O)[O-])c(C(F)(F)F)c1 [FLUTAMIDE]
TERMINAL_BW (72 h, time 3 day): 205.8 g | APTT (72 h, time 3 day): 17.2 s | Bas (72 h, time 3 day): 0% | Eos (72 h, time 3 day): 0.8% | Fbg (72 h, time 3 day): 219 mg/dL | Hb (72 h, time 3 day): 14.3 g/dL | Ht (72 h, time 3 day): 43.1% | Lym (72 h, time 3 day): 87.4% | MCH (72 h, time 3 day): 21.2 pg | MCHC (72 h, time 3 day): 33.3% | MCV (72 h, time 3 day): 63.6 fL | Mono (72 h, time 3 day): 2.4% | Neu (72 h, time 3 day): 8.6% | PT (72 h, time 3 day): 12.6 s | Plat (72 h, time 3 day): 125 x10_4/uL | RBC (72 h, time 3 day): 677.2 x10_4/ul | Ret (72 h, time 3 day): 3.5% | WBC (72 h, time 3 day): 86 x10_2/uL | KIDNEY_L (72 h, time 3 day): 0.9 g | KIDNEY_R (72 h, time 3 day): 0.9 g | KIDNEY_TOTAL (72 h, time 3 day): 1.8 g | LIVER (72 h, time 3 day): 12.3 g | A/G (72 h, time 3 day): 1.7 | ALP (72 h, time 3 day): 1049 IU/L | ALT (72 h, time 3 day): 35.4 IU/L | AST (72 h, time 3 day): 54.2 IU/L | BUN (72 h, time 3 day): 13.2 mg/dL | CRE (72 h, time 3 day): 0.5 mg/dL | Ca (72 h, time 3 day): 10.5 mg/dL | Cl (72 h, time 3 day): 103.4 meq/L | DBIL (72 h, time 3 day): 0.1 mg/dL | GLC (72 h, time 3 day): 203.2 mg/dL | IP (72 h, time 3 day): 7.7 mg/dL | K (72 h, time 3 day): 3.4 meq/L | LDH (72 h, time 3 day): 196.2 IU/L | Na (72 h, time 3 day): 141 meq/L | PL (72 h, time 3 day): 185.2 mg/dL | RALB (72 h, time 3 day): 3.6 g/dL | TBIL (72 h, time 3 day): 0.2 mg/dL | TC (72 h, time 3 day): 113.2 mg/dL | TG (72 h, time 3 day): 77.8 mg/dL | TP (72 h, time 3 day): 5.7 g/dL | gamma-GTP (72 h, time 3 day): 1.4 IU/L | TERMINAL_BW ([…], time 7 day): 233.5 g | TERMINAL_BW ([…], time 14 day): 269.7 g | TERMINAL_BW ([…], time 28 day): 325.6 g | APTT ([…], time 7 day): 18.2 s | Bas ([…], time 7 day): 0% | Eos ([…], time 7 day): 1% | Fbg ([…], time 7 day): 224.6 mg/dL | Hb ([…], time 7 day): 13.5 g/dL | Ht ([…], time 7 day): 40.3% | Lym ([…], time 7 day): 81% | MCH ([…], time 7 day): 20.7 pg | MCHC ([…], time 7 day): 33.4% | MCV ([…], time 7 day): 62 fL | Mono ([…], time 7 day): 2.8% | Neu ([…], time 7 day): 14.6% | PT ([…], time 7 day): 12.6 s | Plat ([…], time 7 day): 123.7 x10_4/uL | RBC ([…], time 7 day): 651 x10_4/ul | Ret ([…], time 7 day): 4.3% | WBC ([…], time 7 day): 111.1 x10_2/uL | APTT ([…], time 14 day): 18.9 s | Bas ([…], time 14 day): 0% | Eos ([…], time 14 day): 1% | Fbg ([…], time 14 day): 228.2 mg/dL | Hb ([…], time 14 day): 13.9 g/dL | Ht ([…], time 14 day): 41.5% | Lym ([…], time 14 day): 79.4% | MCH ([…], time 14 day): 19.9 pg | MCHC ([…], time 14 day): 33.6% | MCV ([…], time 14 day): 59.3 fL | Mono ([…], time 14 day): 3.2% | Neu ([…], time 14 day): 15.2% | PT ([…], time 14 day): 12.9 s | Plat ([…], time 14 day): 115.7 x10_4/uL | RBC ([…], time 14 day): 699.6 x10_4/ul | Ret ([…], time 14 day): 4.5% | WBC ([…], time 14 day): 115.1 x10_2/uL | APTT ([…], time 28 day): 18.2 s | Bas ([…], time 28 day): 0% | Eos ([…], time 28 day): 1.2% | Fbg ([…], time 28 day): 237 mg/dL | Hb ([…], time 28 day): 13.7 g/dL | Ht ([…], time 28 day): 39.9% | Lym ([…], time 28 day): 81.6% | MCH ([…], time 28 day): 19.5 pg | MCHC ([…], time 28 day): 34.3% | MCV ([…], time 28 day): 56.9 fL | Mono ([…], time 28 day): 2.6% | Neu ([…], time 28 day): 13.6% | PT ([…], time 28 day): 12.8 s | Plat ([…], time 28 day): 98 x10_4/uL | RBC ([…], time 28 day): 700.6 x10_4/ul | Ret ([…], time 28 day): 3.7% | WBC ([…], time 28 day): 112 x10_2/uL | KIDNEY_L ([…], time 7 day): 1 g | KIDNEY_R ([…], time 7 day): 1 g | KIDNEY_TOTAL ([…], time 7 day): 2 g | KIDNEY_L ([…], time 14 day): 1.1 g | KIDNEY_R ([…], time 14 day): 1.2 g | KIDNEY_TOTAL ([…], time 14 day): 2.2 g | KIDNEY_L ([…], time 28 day): 1.1 g | KIDNEY_R ([…], time 28 day): 1.2 g | KIDNEY_TOTAL ([…], time 28 day): 2.3 g | LIVER ([…], time 7 day): 15.7 g | LIVER ([…], time 14 day): 16.8 g | LIVER ([…], time 28 day): 20 g | A/G ([…], time 7 day): 1.5 | ALP ([…], time 7 day): 797.6 IU/L | ALT ([…], time 7 day): 32.8 IU/L | AST ([…], time 7 day): 46 IU/L | BUN ([…], time 7 day): 16 mg/dL | CRE ([…], time 7 day): 0.4 mg/dL | Ca ([…], time 7 day): 10.7 mg/dL | Cl ([…], time 7 day): 102.8 meq/L | DBIL ([…], time 7 day): 0.086 mg/dL | GLC ([…], time 7 day): 199.8 mg/dL | IP ([…], time 7 day): 7.1 mg/dL | K ([…], time 7 day): 3.5 meq/L | LDH ([…], time 7 day): 177.8 IU/L | Na ([…], time 7 day): 140.6 meq/L | PL ([…], time 7 day): 186.8 mg/dL | RALB ([…], time 7 day): 3.7 g/dL | TBIL ([…], time 7 day): 0.2 mg/dL | TC ([…], time 7 day): 110.6 mg/dL | TG ([…], time 7 day): 42.6 mg/dL | TP ([…], time 7 day): 6.2 g/dL | gamma-GTP ([…], time 7 day): 2 IU/L | A/G ([…], time 14 day): 1.7 | ALP ([…], time 14 day): 726.8 IU/L | ALT ([…], time 14 day): 31 IU/L | AST ([…], time 14 day): 47.4 IU/L | BUN ([…], time 14 day): 15 mg/dL | CRE ([…], time 14 day): 0.5 mg/dL | Ca ([…], time 14 day): 10.5 mg/dL | Cl ([…], time 14 day): 103.4 meq/L | DBIL ([…], time 14 day): 0.096 mg/dL | GLC ([…], time 14 day): 181.2 mg/dL | IP ([…], time 14 day): 6.3 mg/dL | K ([…], time 14 day): 3.8 meq/L | LDH ([…], time 14 day): 173.8 IU/L | Na ([…], time 14 day): 140.4 meq/L | PL ([…], time 14 day): 168.8 mg/dL | RALB ([…], time 14 day): 3.8 g/dL | TBIL ([…], time 14 day): 0.2 mg/dL | TC ([…], time 14 day): 104.4 mg/dL | TG ([…], time 14 day): 32.2 mg/dL | TP ([…], time 14 day): 6 g/dL | gamma-GTP ([…], time 14 day): 2.8 IU/L | A/G ([…], time 28 day): 1.8 | ALP ([…], time 28 day): 642.2 IU/L | ALT ([…], time 28 day): 29.2 IU/L | AST ([…], time 28 day): 45.2 IU/L | BUN ([…], time 28 day): 16.4 mg/dL | CRE ([…], time 28 day): 0.5 mg/dL | Ca ([…], time 28 day): 10.7 mg/dL | Cl ([…], time 28 day): 104 meq/L | DBIL ([…], time 28 day): 0.1 mg/dL | GLC ([…], time 28 day): 204.4 mg/dL | IP ([…], time 28 day): 7.6 mg/dL | K ([…], time 28 day): 3.7 meq/L | LDH ([…], time 28 day): 110.8 IU/L | Na ([…], time 28 day): 141.8 meq/L | PL ([…], time 28 day): 167.4 mg/dL | RALB ([…], time 28 day): 4.3 g/dL | TBIL ([…], time 28 day): 0.2 mg/dL | TC ([…], time 28 day): 97.4 mg/dL | TG ([…], time 28 day): 26.6 mg/dL | TP ([…], time 28 day): 6.8 g/dL | gamma-GTP ([…], time 28 day): 1.8 IU/L
